This assay deals with α-Glucosidase from Saccharomyces cerevisiae. The assay can be described thus: In vitro α-glucosidase inhibitory activity (UV absorbance at 405 nm, p-nitrophenyl glycoside substrate). The settings on record: for IC50: mean ± SD from three parallel measurements, phosphate buffer pH 7.0, 37 °C, absorbance at 405 nm, read-out: IC50, inhibitory effects against α-glucosidase; for α-glucosidase inhibitory activity (result in words): compared to positive control acarbose. Type of assay: biochemical. How it is done:
Optical rotations were measured on a Bellingham-Stanley ADP 440+ polarimeter at 25 °C. IR data were recorded on a Nicolet 5DX-FTIR (Thermo Fisher Scientific, Inc., Hudson, NH, USA), in KBr discs. UV data were recorded on a Shimadzu UV-240 spectrophotometer (Shimadzu, Kyoto, Japan). The ^1H NMR (500 MHz), ^13C NMR (125 MHz), and 2D NMR spectra were obtained on a Bruker AVANCE-500 (Bruker BioSpin Corporation, Billerica, MA, USA) using TMS as an internal reference. HRESIMS were acquired on a Thermofisher LTQ Orbitrp Elite LC-MS spectrometer (Thermo Fisher Scientific, Inc., Hudson, NH, USA), and the ESIMS data were measured on a Micro Mass Q-TOF spectrometer (Waters Corporation, Milford, MA, USA). TLC analysis was carried out on silica gel plates (Marine Chemical Ltd., Qingdao, China). RP-C18 silica gel (Fuji, 40–75 μm, Fuji Silysia Chemical Ltd., Kasugai, Japan), Silica gel (200–300 mesh, Marine Chemical Ltd., Qingdao, China), High silica gel (H, Marine Chemical Ltd., Qingdao, China), and Sephadex LH-20 (GE Healthcare Bio-Sciences AB, Stockholm, Sweden) were used for column chromatography (CC).
An assay of α-glucosidase inhibitory activity was performed using a reported method, with slight modifications. All the assays were performed using 0.01 M KH2PO4-K2HPO4 buffers, pH 7.0, and a Bio-Rad iMark microplate reader (Bio-Rad Laboratories, Inc., Kyoto, Japan). Enzyme solution was prepared to give 2.0 Units/mL in 2 mL aliquots. The assay medium contained phosphate buffer, pH 7.0 (130 μL), 10 μL of enzyme solution, 20 μL of DMSO or inhibitor (dissolved in DMSO), and 40 μL of substrate (p-nitrophenyl glycoside, 3 mg/mL). The substrate was added to the assay medium containing enzyme and buffer with inhibitor added after 15 min of incubation time at 37 °C. The activity was determined by measuring the increase in absorbance at 405 nm for a 1 min interval. Calculations were performed according to the equation: η (%) = [(B − S)/B] × 100%
(B stands for the assay medium with DMSO; S stands for the assay medium with inhibitor). All measurements were done in triplicate from two independent experiments. The reported IC50 was the average value of two independent experiments.

Regarding `CC(/C=C/C(=O)O)=C\C=C\C(C)=C\C(C)=C\C(=O)O` [Compound 1, 2E, 4E, 6E, 8E, 10E-3,5,9-trimethyldodeca-2,4,6,8, 10-pentaenedioic acid], the IC50 worked out at 121.8 ± 0.4 µM.

For `COC(=O)/C=C/C(C)=C/C=C/C(C)=C/C(C)=C/C(=O)O` [Compound 2, 2E, 4E, 6E, 8E, 10E-12-methoxy-3,5,9-trimethyl-12-oxododeca-2,4,6,8, 10-pentaenoic acid], the “α-glucosidase inhibitory activity (result in words)” value (“α-glucosidase inhibitory activity” for short) is listed as “significant inhibitory activity” and the IC50 is 23.5 ± 0.3 µM.

For the molecule `COC(=O)/C=C/C(C)=C/C=C/C(C)=C\C(C)=C\C(=O)O` [Compound 3, 2E, 4Z, 6E, 8E, 10E-12-methoxy-3,5,9-trimethyl-12-oxododeca-2,4,6,8, 10-pentaenoic acid], the “α-glucosidase inhibitory activity” value is listed as “significant inhibitory activity” and the IC50 amounted to 42.3 ± 0.2 µM.

On to `C[C@H](O)C[C@@H](O)Cc1cc2cc(O)cc(O)c2c(=O)o1` [Compound 4, 12-epicitreoisocoumarinol], for which the IC50 is 343.7 ± 1 µM.

As to `C[C@@H](O)C[C@@H](O)Cc1cc2cc(O)cc(O)c2c(=O)o1` [Compound 5, citreoisocoumarinol], the IC50 was 392.5 ± 1.7 µM.

Regarding `CC(=O)C[C@@H](O)Cc1cc2cc(O)cc(O)c2c(=O)o1` [Compound 6, citreoisocoumarin], the IC50 is 538.7 ± 4.3 µM.

`Cc1cc(=O)cc(Cc2cc(O)cc(O)c2)o1` [Compound 7, macrocarpon C]: the “α-glucosidase inhibitory activity” value is reported as “did not display inhibitory activity” and the IC50 is more than 900 µM.

Values taken from PMC4882560, “Polyketides from the Mangrove-Derived Endophytic Fungus Nectria sp. HN001 and Their α-Glucosidase Inhibitory Activity” (Marine Drugs, 2016).
